Laboratory results taken from patent US6905839B2, “In vivo phenotyping for human cytochrome P450 3A activity” (priority 2002, dated 2005).

Columns and labels:
[1] = test system: CYP3A; details: pretreatment with 500-mg of clarithromycin twice a day for 7 days; cited from earlier work
[2] = test system: CYP3A; details: male, human, in vivo
Procedure: The subject was not receiving any medication. […] Urine samples were obtained at a timed period (0-2, 2-4, 4-6, 6-8, 8-10, and 10-12) and the volume of the urine samples was noted. The recommended frequency of blood sampling is at least one time during a 2-hour urine collection. Urinary concentrations of cortisol and 6β-hydroxycortisol and plasma concentrations of cortisol were determined by HPLC and GC-MS, respectively. “The endogenous metabolic clearance (CLm(6β)-endo)” was calculated by Equation 4.
c) The fractional metabolic clearance for the 6β-hydroxylation of endogenous cortisol (CLm(6β)) is expressed as the amount of urinary excreted 6β-hydroxycortisol (X(6β)) divided by the area under the concentration-time curve of cortisol (AUC(F)); that is, CLm(6β)=X(6β)/AUC(F).

SMILES: CC[C@H]1OC(=O)[C@H](C)[C@@H](O[C@H]2C[C@@](C)(OC)[C@@H](O)[C@H](C)O2)[C@H](C)[C@@H](O[C@@H]2O[C@H](C)C[C@H](N(C)C)[C@H]2O)[C@](C)(OC)C[C@@H](C)C(=O)[C@H](C)[C@@H](O)[C@]1(C)O [clarithromycin]
- midazolam sleep time [1]: doubling
- reduction in the systemic clearance of midazolam [1]: 64%
- variation of CLm(6β)-endo values during treatment [2]: 1.2 fold
